From ChEMBL document CHEMBL6078729, “Synthetic glycol-split heparin tri- and tetrasaccharides provide new insights into structural peculiarities for antiheparanase activity” (Bioorg Med Chem, 2025) come the findings set out here.

The target of the assay is T1, Heparanase (Homo sapiens, UniProt Q9Y251).
T1 sequence (Q9Y251 whole entry): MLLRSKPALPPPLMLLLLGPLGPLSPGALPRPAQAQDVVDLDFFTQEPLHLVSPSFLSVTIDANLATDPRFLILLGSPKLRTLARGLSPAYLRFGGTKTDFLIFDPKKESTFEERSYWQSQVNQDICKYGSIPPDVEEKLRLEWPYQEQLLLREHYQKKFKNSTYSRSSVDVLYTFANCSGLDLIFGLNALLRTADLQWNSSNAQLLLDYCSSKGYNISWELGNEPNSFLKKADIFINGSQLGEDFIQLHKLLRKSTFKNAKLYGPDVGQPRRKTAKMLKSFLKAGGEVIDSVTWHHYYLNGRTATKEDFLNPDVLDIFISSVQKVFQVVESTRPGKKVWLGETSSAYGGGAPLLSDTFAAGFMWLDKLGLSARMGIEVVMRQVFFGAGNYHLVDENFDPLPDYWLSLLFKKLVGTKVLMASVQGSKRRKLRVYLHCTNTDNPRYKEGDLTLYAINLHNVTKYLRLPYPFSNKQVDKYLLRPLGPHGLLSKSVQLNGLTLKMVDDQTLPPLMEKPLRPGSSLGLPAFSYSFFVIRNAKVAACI
Kind of assay: Inhibition of recombinant human heparanase assessed as fondaparinux cleavage by measuring disaccharide by colorimetric analysis.

By IC50 is commonly meant the midpoint of a concentration-inhibition curve. For the compound `CO[C@H]1O[C@H](COS(=O)(=O)O)[C@@H](O[C@@H]2O[C@@H](C(=O)O)[C@@H](O[C@H]3O[C@H](COS(=O)(=O)O)[C@@H](O[C@@H]4O[C@@H](C(=O)O)[C@@H](OC)[C@H](O)[C@H]4O)[C@H](O)[C@H]3NS(=O)(=O)O)[C@H](O)[C@H]2O)[C@H](O)[C@H]1NS(=O)(=O)O`, the half-maximal inhibitory concentration (IC50) is more than 85.3 µM. The same measure for `CO[C@H]1O[C@H](COS(=O)(=O)O)[C@@H](O[C@@H](CO)O[C@@H](C(=O)O)[C@@H](CO)O[C@H]2O[C@H](COS(=O)(=O)O)[C@@H](OC)[C@H](O)[C@H]2NS(=O)(=O)O)[C@H](O)[C@H]1NS(=O)(=O)O`: 37.9 µM; for `CO[C@H]1O[C@H](COS(=O)(=O)O)[C@@H](O[C@@H](CO)O[C@H](C(=O)O)[C@@H](CO)O[C@H]2O[C@H](COS(=O)(=O)O)[C@@H](OC)[C@H](O)[C@H]2NS(=O)(=O)O)[C@H](O)[C@H]1NS(=O)(=O)O`: 76.8 µM; for `CO[C@H]1O[C@H](COS(=O)(=O)O)[C@@H](O[C@H](O[C@H](C(=O)O)[C@H](O[C@H]2O[C@H](COS(=O)(=O)O)[C@@H](OC)[C@H](O)[C@H]2NS(=O)(=O)O)C(=O)O)C(=O)O)[C@H](O)[C@H]1NS(=O)(=O)O`: 71.5 µM.

`CO[C@H]1O[C@H](COS(=O)(=O)O)[C@@H](O[C@H](O[C@@H](C(=O)O)[C@@H](O[C@H]2O[C@H](COS(=O)(=O)O)[C@@H](O[C@H](O[C@@H](C(=O)O)[C@@H](OC)C(=O)O)C(=O)O)[C@H](O)[C@H]2NS(=O)(=O)O)C(=O)O)C(=O)O)[C@H](O)[C@H]1NS(=O)(=O)O`: the IC50 was 7.57 µM. In the case of `CO[C@H]1O[C@H](COS(=O)(=O)O)[C@@H](O[C@@H]2O[C@H](C(=O)O)[C@@H](O[C@H]3O[C@H](COS(=O)(=O)O)[C@@H](OC)[C@H](O)[C@H]3NS(=O)(=O)O)[C@H](O)[C@H]2O)[C@H](O)[C@H]1NS(=O)(=O)O`, the IC50 was more than 103 µM. The figure for `CO[C@H]1O[C@H](COS(=O)(=O)O)[C@@H](O[C@@H]2O[C@@H](C(=O)O)[C@@H](O[C@H]3O[C@H](COS(=O)(=O)O)[C@@H](OC)[C@H](O)[C@H]3NS(=O)(=O)O)[C@H](O)[C@H]2O)[C@H](O)[C@H]1NS(=O)(=O)O` is more than 103 µM; for `CO[C@H]1O[C@H](COS(=O)(=O)O)[C@@H](O[C@H](O[C@@H](C(=O)O)[C@H](O[C@H]2O[C@H](COS(=O)(=O)O)[C@@H](OC)[C@H](O)[C@H]2NS(=O)(=O)O)C(=O)O)C(=O)O)[C@H](O)[C@H]1NS(=O)(=O)O` it is more than 95.4 µM; for `CO[C@H]1O[C@H](COS(=O)(=O)O)[C@@H](O[C@@H](CO)O[C@@H](C(=O)O)[C@H](CO)O[C@H]2O[C@H](COS(=O)(=O)O)[C@@H](O[C@@H](CO)O[C@@H](C(=O)O)[C@H](CO)OC)[C@H](O)[C@H]2NS(=O)(=O)O)[C@H](O)[C@H]1NS(=O)(=O)O` it is 63.7 µM.
